Source: EPA's ToxRefDB 2

Columns and labels:
rat [1] = settings: Subchronic oral toxicity in rodents, sprague dawley, Injection, Intraperitoneal, dose end: 45 day, group: systemic
rat [2] = settings: Carcinogenicity, sprague dawley, Injection, Intraperitoneal, dose end: 52 week, group: systemic
mouse [3] = settings: Carcinogenicity, b6c3f1, Injection, Intraperitoneal, dose end: 52 week, group: systemic
mouse [4] = settings: Carcinogenicity, b6c3f1, Oral, Feed, dose end: 24 month, group: systemic
rat [5] = settings: Subchronic oral toxicity in rodents, sprague dawley, Feed, dose end: 13 week, group: systemic, systemic / clinical chemistry / cholesterol / cholesterol + systemic / organ weight / liver / relative to body weight + systemic / pathology…
rat [6] = settings: Multigenerational reproductive toxicity study, sprague dawley, Oral, Feed, dose end: 2 generation
dog [7] = settings: Chronic toxicity; beagle; Oral; Feed; dose end: 52 week; group: systemic; systemic / clinical chemistry / alkaline phosphatase (alp/alk) / alkaline phosphatase (alp/alk) + systemic / organ weight / liver / absolute…
rat [8] = settings: Combined chronic toxicity/carcinogenicity; sprague dawley; Oral; Feed; dose end: 24 month; group: systemic; systemic / organ weight / liver / relative to body weight + systemic / pathology microscopic / liver / hypertrophy + systemic / pathology …
mouse [9] = settings: Combined chronic toxicity/carcinogenicity; b6c3f1; Oral; Feed; dose end: 24 month; group: systemic; systemic / pathology microscopic / liver / accentuated lobular pattern
dog [10] = settings: Chronic toxicity; beagle; Oral; Gavage/Intubation; dose end: 52 week; group: systemic; systemic / in life observation / body weight / body weight gain + systemic / in life observation / clinical signs / emesis + systemic / in …
rat [11] = settings: Subchronic oral toxicity in rodents, fischer, Feed, dose end: 90 day, group: systemic
[12] = systemic / in life observation / clinical signs / distended abdomens + systemic / in life observation / mortality / mortality + systemic / …
[13] = systemic / in life observation / mortality / mortality + systemic / pathology microscopic / peritoneum / sarcoma
[14] = systemic / in life observation / mortality / mortality + systemic / pathology microscopic / peritoneum / sarcoma + systemic / in life …
[15] = systemic / in life observation / mortality / mortality
[16] = systemic / pathology microscopic / peritoneum / sarcoma + systemic / in life observation / body weight / body weight + systemic / in life …
[17] = systemic / pathology gross / liver / enlarged + systemic / pathology gross / liver / mass + systemic / pathology gross / liver / nodule(s…
[18] = group: offspring, systemic / in life observation / body weight / offspring (pup) weight
[19] = group: parental, systemic / in life observation / body weight / body weight + systemic / in life observation / food consumption / food consumption + systemic…
[20] = systemic / organ weight / liver / relative to body weight + systemic / organ weight / kidney / relative to body weight

**Q.** With `CC(COc1ccccc1)N(CCCl)Cc1ccccc1.Cl` (stereo not drawn) [Phenoxybenzamine hydrochloride] as the molecule, how does the LEL (rat [1]; systemic / in life observation / clinical signs / distended abdomens) read?
**A.** The LEL was 15 mg/kg/day.

**Q.** And the LOAEL (rat [1]; [12])?
**A.** Its LOAEL is over 30 mg/kg/day.

**Q.** And the NEL (rat [1]; [12])?
**A.** Its NEL is 7.5 mg/kg/day.

**Q.** And the NOAEL (rat [1]; [12])?
**A.** Its NOAEL is at least 30 mg/kg/day.

**Q.** What about the LEL (rat [2]; [13]) of the same molecule?
**A.** The LEL was 5 mg/kg/day.

**Q.** And the NEL (rat [2]; [13])?
**A.** The NEL was under 5 mg/kg/day.

**Q.** And the LOAEL (rat [2]; [14])?
**A.** Its LOAEL is over 10 mg/kg/day.

**Q.** And the NOAEL (rat [2]; [14])?
**A.** Its NOAEL is at least 10 mg/kg/day.

**Q.** What about the LEL (mouse [3]; [15]) of the same molecule?
**A.** The LEL was 12.5 mg/kg/day.

**Q.** What about the NEL (mouse [3]; [15]) of the same molecule?
**A.** The NEL was under 12.5 mg/kg/day.

**Q.** And the LOAEL (mouse [3]; [16])?
**A.** The LOAEL was over 25 mg/kg/day.

**Q.** And the NOAEL (mouse [3]; [16])?
**A.** Its NOAEL is at least 25 mg/kg/day.

**Q.** `C#CC(C)(C)NC(=O)c1cc(Cl)cc(Cl)c1` [Propyzamide] was tested. Which LOAEL (mouse [4]; systemic / pathology gross / liver / enlarged + systemic / pathology gross / liver / mass + systemic / pathology gross / liver / nodule(s)) did it give?
**A.** Its LOAEL is 75 mg/kg/day.

**Q.** What about the LEL (mouse [4]; [17]) of the same molecule?
**A.** The LEL was 75 mg/kg/day.

**Q.** What about the NEL (mouse [4]; [17]) of the same molecule?
**A.** The NEL was 15 mg/kg/day.

**Q.** What about the NOAEL (mouse [4]; [17]) of the same molecule?
**A.** Its NOAEL is 15 mg/kg/day.

**Q.** What about the LEL (rat [5]) of the same molecule?
**A.** Its LEL is 60 mg/kg/day.

**Q.** And the LOAEL (rat [5])?
**A.** The LOAEL was 60 mg/kg/day.

**Q.** And the NEL (rat [5])?
**A.** Its NEL is 12.3 mg/kg/day.

**Q.** And the NOAEL (rat [5])?
**A.** The NOAEL was 12.3 mg/kg/day.

**Q.** And the LEL (rat [6]; [18])?
**A.** The LEL was 114 mg/kg/day.

**Q.** And the LOAEL (rat [6]; [18])?
**A.** The LOAEL was 114 mg/kg/day.

**Q.** And the NEL (rat [6]; [18])?
**A.** The NEL was 15.4 mg/kg/day.

**Q.** What about the NOAEL (rat [6]; [18]) of the same molecule?
**A.** The NOAEL was 15.4 mg/kg/day.

**Q.** What about the LEL (rat [6]; [19]) of the same molecule?
**A.** The LEL was 114 mg/kg/day.

**Q.** And the LOAEL (rat [6]; [19])?
**A.** Its LOAEL is 114 mg/kg/day.

**Q.** And the NEL (rat [6]; [19])?
**A.** Its NEL is 15.4 mg/kg/day.

**Q.** What about the NOAEL (rat [6]; [19]) of the same molecule?
**A.** Its NOAEL is 15.4 mg/kg/day.

**Q.** What about the LEL (dog [7]) of the same molecule?
**A.** The LEL was 33.1 mg/kg/day.

**Q.** What about the LOAEL (dog [7]) of the same molecule?
**A.** Its LOAEL is 33.1 mg/kg/day.

**Q.** And the NEL (dog [7])?
**A.** Its NEL is 11.9 mg/kg/day.

**Q.** And the NOAEL (dog [7])?
**A.** The NOAEL was 11.9 mg/kg/day.

**Q.** And the LEL (rat [8])?
**A.** The LEL was 48.8 mg/kg/day.

**Q.** What about the LOAEL (rat [8]) of the same molecule?
**A.** Its LOAEL is 48.8 mg/kg/day.

**Q.** And the NEL (rat [8])?
**A.** The NEL was 10.1 mg/kg/day.

**Q.** What about the NOAEL (rat [8]) of the same molecule?
**A.** The NOAEL was 10.1 mg/kg/day.

**Q.** What does the source list for `Oc1ccccc1-c1ccccc1` [2-Phenylphenol]?
**A.** LEL (mouse [9]): 250 mg/kg/day; LOAEL (mouse [9]): 250 mg/kg/day; NEL (mouse [9]): < 250 mg/kg/day; NOAEL (mouse [9]): < 250 mg/kg/day; LEL (dog [10]): 300 mg/kg/day; LOAEL (dog [10]): 300 mg/kg/day; NEL (dog [10]): 100 mg/kg/day; NOAEL (dog [10]): 100 mg/kg/day; LOAEL (rat [11]; systemic / in life observation / body weight / body weight + systemic / in life observation / body weight / body weight gain): 763 mg/kg/day; NOAEL (rat [11]; systemic / in life observation / body weight / body weight + systemic / in life observation / body weight / body weight gain + systemic / in…): 377 mg/kg/day; LEL (rat [11]; [20]): 377 mg/kg/day; NEL (rat [11]; [20]): < 377 mg/kg/day
